This is an account of results in patent US10022372B2, “Caveolin-1 related methods for treating glioblastoma with temozolomide” (THOMAS JEFFERSON UNIVERSITY, priority 2013, dated 2018).

Data set [1] concerns Cav-1 overexpressing U-87MG cells (LV105 Cav-1). Briefly: Annexin V / propidium iodide flow cytometry of TMZ-treated U-87MG cells. The class given is cell-based, human. The procedure:
FIG. 5. […] Each group is normalized to its own DMSO control (*p<0.05 and **p<0.01 vs internal DMSO control, \p<0.01 vs TMZ treated LV105 control, n=3 per group).
U-87MG cells (50,000/well) were plated in 12-well tissue culture dishes and allowed to attach overnight prior to changing their medium into complete EMEM containing either 500 μM TMZ or DMSO control and culturing them for an additional 72 hours. Cells were then trypsinized, centrifuged at 300×g for 5 min and resuspended in binding buffer with APC-conjugated anti-Annexin V antibody (BP Biosciences) and 0.33 μg/ml Propidium Iodide (PI, KPL, Gaithersburg, Md.). All samples were run on a BD FACSCalibur flow cytometer (BD Biosciences). Cells were quantified according to staining as follows: viable (Annexin V negative, PI negative), early apoptotic (Annexin V positive, PI negative), late apoptotic (Annexin V positive, PI positive), and dead (Annexin V negative, PI positive).

For data set [2] the following is noted: cited from earlier work.
The test system of data set [3] is three different GBM-derived cell lines. As to conditions: in vitro administration, Boyden-chamber assay; cited from earlier work.

For the molecule `Cn1nnc2c(C(N)=O)ncn2c1=O` [temozolomide, 3,4-dihydro-3-methyl-4-oxoimidazo[5,1-d]-αs-tetrazine-8-carboxamide], the “increase in early apoptotic cells compared to TMZ-treated LV105 control cells” value in data set [1] (Cav-1 overexpressing U-87MG cells, 500 μM, 72 hours, p<0.01) is listed as > 400%. Also, the cytotoxicity at 500 µM in data set [1] (Homo sapiens, U-87 MG, 72 h, read-out: reduction in cell viability compared to TMZ treated LV105 control cells) worked out at 5.5%. Also, in data set [2] (pH <5), the “stability at acidic pH” value is “stable”. In data set [2] (pH >7), the “stability at pH>7” value was “labile”.

B1: full length Cav-1: full length Caveolin-1 protein administered in vitro (protein, UniProt Q03135 1-178, looked up)
chain: MSGGKYVDSEGHLYTVPIREQGNIYKPNNKAMADELSEKQVYDAHTKEIDLVNRDPKHLNDDVVKIDFEDVIAEPEGTHSFDGIWKASFTTFTVTKYWFYRLLSALFGIPMALIWGIYFAILSFLHIWAVVPCIKSFLIEIQCISRVYSIYVHTVCDPLFEAVGKIFSNVRINLQKEI
modifications: full-length
notes: full length Caveolin-1 protein administered in vitro
As for B1, the invasion entry in data set [3] was “prevented invasion”.
